Test results taken from US20220096516A1, “OLIGONUCLEOTIDE MOLECULE AND APPLICATION THEREOF IN TUMOR THERAPY” (Ractigen Therapeutics, priority 2019, published 2022).
d = 2'-deoxy (DNA); r = 2'-OH (RNA)

Each substance was assayed on LHPP gene (assay: High-throughput screening of saRNAs targeting LHPP promoter: LHPP mRNA by one-step RT-qPCR in Huh7 cells). Settings: 10 nM saRNA, 72 hours, relative to control (Mock).
Format: cell-based, human
Procedure: Human liver cancer cell line Huh7 was cultured in DMEM medium (Gibco), containing 10% of calf serum (Sigma-Aldrich) and 1% of penicillin/streptomycin (Gibco). The cells were cultured at 5% CO2 and 37° C. According to the instructions provided by the manufacturer, RNAiMax (Invitrogen, Carlsbad, Calif.) was used to transfect small activating RNAs at a concentration of 10 nM (unless otherwise specified).
At the end of transfection, the media were discarded, and each well was washed with 150 μL of PBS once. After discarding the PBS, 50 μL of cell lysis buffer (Takara) was added to each well and incubated at room temperature for 5 min. 1 μL of the resulted cell lysis was taken from each well and analyzed by qPCR on an ABI 7500 fast real-time PCR system (Applied Biosystems) using a one-step TB Green™ PrimeScrip™ RT-PCR kit II (Takara, RR086A) Each transfection sample was repeatedly amplified in 3 replicate wells.
Reaction conditions were as follows: reverse transcription reaction (stage 1): 5 min at 42° C., 10 s at 95° C.; PCR reaction (stage 2): 5 s at 95° C., 20 s at 60° C., 45 cycles of amplification. HPRT1 and TBP were used as internal reference genes. PCR primers used for amplifying LHPP, HPRT1 and TBP genes are shown in Table 2, wherein LHPP was amplified using the LHPP F1/R1 primer pair.
To calculate the relative expression level (Erel) of LHPP (target gene) in an saRNA-transfected sample relative to control treatment (Mock), the Ct values of the target gene and the two internal reference genes were substituted into formula 1
Erel=2^(CtT^m^-CtT^s^)/((2^(CtR1^m^-CtR1^s^)*2^(CtR2^m^-CtR2^s^))^(1/2))
wherein CtTm was the Ct value of the target gene from the control (Mock) sample; CtTs was the Ct value of the target gene from the saRNA-treated sample; CtR1m was the Ct value of the internal reference gene 1 from the control (Mock) sample; CtR1s was the Ct value of the internal reference gene 1 from the saRNA-treated sample; CtR2m was the Ct value of the internal reference gene 2 from the control (Mock) sample; and CtR2s was the Ct value of the internal reference gene 2 from the saRNA-treated sample.
In order to obtain saRNAs capable of activating LHPP transcription, Huh7 cells were transfected with each of the aforementioned 290 saRNAs with a transfection concentration of 10 nM, and 72 hours later, according to the same method as described above, the cells were lysed and analyzed by one-step RT-qPCR to obtain the relative (compared with the control (Mock)) expression level of LHPP gene for each saRNA-treated sample. […] The observed maximum activation and maximum inhibition is 3.46 fold and 0.49 fold, respectively, saRNAs with activating activity are referred to as activating saRNAs, and the saRNAs with inhibiting activity are referred to as inhibiting saRNAs.

Substance	Fold of changes in relative LHPP mRNA expression level [fold]	Fold of changes in relative LHPP mRNA expression level (log2)
RAG7-686: saRNA duplex; sense UGCAUCCUCAUCUAUGCAGTT (SEQ ID NO: 86), antisense CUGCAUAGAUGAGGAUGCATT (SEQ ID NO: 250) (sugars from the 5' end r19 d2, backbone not given here)	1.25	0.32
RAG7-679: saRNA duplex; sense UCAUCUAUGCAGGGCUGUUTT (SEQ ID NO: 107), antisense AACAGCCCUGCAUAGAUGATT (SEQ ID NO: 271) (sugars from the 5' end r19 d2, backbone not given here)	1.20	0.27
RAG7-848: saRNA duplex; sense GAAAGGUUCCGAGGGGCCATT (SEQ ID NO: 87), antisense UGGCCCCUCGGAACCUUUCTT (SEQ ID NO: 251) (sugars from the 5' end r19 d2, backbone not given here)	1.25	0.32
RAG7-896: saRNA duplex; sense GCUAUGUUGGACCAGAAGUTT (SEQ ID NO: 69), antisense ACUUCUGGUCCAACAUAGCTT (SEQ ID NO: 233) (sugars from the 5' end r19 d2, backbone not given here)	1.30	0.38
RAG7-184: saRNA duplex; sense UGUCUCAAUUUGCCUUUGATT (SEQ ID NO: 16), antisense UCAAAGGCAAAUUGAGACATT (SEQ ID NO: 180) (sugars from the 5' end r19 d2, backbone not given here)	1.59	0.67
RAG7-128: saRNA duplex; sense UUGUCCGCUGAUCUCCUGGTT (SEQ ID NO: 111), antisense CCAGGAGAUCAGCGGACAATT (SEQ ID NO: 275) (sugars from the 5' end r19 d2, backbone not given here)	1.20	0.26
RAG7-139: saRNA duplex; sense UUUCCUGCUCUUUGUCCGCTT (SEQ ID NO: 7), antisense GCGGACAAAGAGCAGGAAATT (SEQ ID NO: 171) (sugars from the 5' end r19 d2, backbone not given here)	1.73	0.79
RAG7-720: saRNA duplex; sense UGAUAGUCCCGUUUUCUUCTT (SEQ ID NO: 62), antisense GAAGAAAACGGGACUAUCATT (SEQ ID NO: 226) (sugars from the 5' end r19 d2, backbone not given here)	1.33	0.41
RAG7-190: saRNA duplex; sense CCUUCUUGUCUCAAUUUGCTT (SEQ ID NO: 130), antisense GCAAAUUGAGACAAGAAGGTT (SEQ ID NO: 294) (sugars from the 5' end r19 d2, backbone not given here)	1.16	0.22
RAG7-123: saRNA duplex; sense CGCUGAUCUCCUGGGAAGATT (SEQ ID NO: 68), antisense UCUUCCCAGGAGAUCAGCGTT (SEQ ID NO: 232) (sugars from the 5' end r19 d2, backbone not given here)	1.30	0.38
RAG7-195: saRNA duplex; sense AGGUGCCUUCUUGUCUCAATT (SEQ ID NO: 28), antisense UUGAGACAAGAAGGCACCUTT (SEQ ID NO: 192) (sugars from the 5' end r19 d2, backbone not given here)	1.51	0.59
RAG7-97: saRNA duplex; sense CGAAAAGGACACCGUUUCATT (SEQ ID NO: 71), antisense UGAAACGGUGUCCUUUUCGTT (SEQ ID NO: 235) (sugars from the 5' end r19 d2, backbone not given here)	1.29	0.37
RAG7-180: saRNA duplex; sense UCAAUUUGCCUUUGACCUUTT (SEQ ID NO: 58), antisense AAGGUCAAAGGCAAAUUGATT (SEQ ID NO: 222) (sugars from the 5' end r19 d2, backbone not given here)	1.35	0.43
RAG7-852: saRNA duplex; sense ACUUGAAAGGUUCCGAGGGTT (SEQ ID NO: 128), antisense CCCUCGGAACCUUUCAAGUTT (SEQ ID NO: 292) (sugars from the 5' end r19 d2, backbone not given here)	1.17	0.22
RAG7-182: saRNA duplex; sense UCUCAAUUUGCCUUUGACCTT (SEQ ID NO: 85), antisense GGUCAAAGGCAAAUUGAGATT (SEQ ID NO: 249) (sugars from the 5' end r19 d2, backbone not given here)	1.26	0.33
RAG7-736: saRNA duplex; sense UGGGUUUAACGCAUUGUGATT (SEQ ID NO: 131), antisense UCACAAUGCGUUAAACCCATT (SEQ ID NO: 295) (sugars from the 5' end r19 d2, backbone not given here)	1.16	0.22
RAG7-107: saRNA duplex; sense AGAAAGCUUCCGAAAAGGATT (SEQ ID NO: 156), antisense UCCUUUUCGGAAGCUUUCUTT (SEQ ID NO: 320) (sugars from the 5' end r19 d2, backbone not given here)	1.11	0.15
RAG7-100: saRNA duplex; sense UUCCGAAAAGGACACCGUUTT (SEQ ID NO: 125), antisense AACGGUGUCCUUUUCGGAATT (SEQ ID NO: 289) (sugars from the 5' end r19 d2, backbone not given here)	1.17	0.22
RAG7-181: saRNA duplex; sense CUCAAUUUGCCUUUGACCUTT (SEQ ID NO: 97), antisense AGGUCAAAGGCAAAUUGAGTT (SEQ ID NO: 261) (sugars from the 5' end r19 d2, backbone not given here)	1.22	0.29
RAG7-676: saRNA duplex; sense UCUAUGCAGGGCUGUUAUCTT (SEQ ID NO: 83), antisense GAUAACAGCCCUGCAUAGATT (SEQ ID NO: 247) (sugars from the 5' end r19 d2, backbone not given here)	1.26	0.33
RAG7-179: saRNA duplex; sense CAAUUUGCCUUUGACCUUUTT (SEQ ID NO: 39), antisense AAAGGUCAAAGGCAAAUUGTT (SEQ ID NO: 203) (sugars from the 5' end r19 d2, backbone not given here)	1.45	0.53
RAG7-43: saRNA duplex; sense CAGUUCCGGGUUUGCACCCTT (SEQ ID NO: 93), antisense GGGUGCAAACCCGGAACUGTT (SEQ ID NO: 257) (sugars from the 5' end r19 d2, backbone not given here)	1.23	0.30
